# Experiments:
# Kunming mice = experiment: Sucrose-loading test, postprandial blood glucose; assay type: in vivo; settings: gavage, 0-120 min
# Procedure: Kunming mice (male, 35–40 g) were gained from Xi’an Jiaotong University (Xi’an, China). […] After gavage, the blood glucose levels were measured at 0, 15, 30, 45, 60, 90, and 120 min by glucose detection kit (Robio Co., Shanghai, China). The whole process conformed to the Guide for the Care and Use of Laboratory Animals, eighth edition (ISBN 10: 0-309-15396-4) ([22]).
# α-glucosidase [1] = biological target: T1, α-glucosidase (Saccharomyces cerevisiae, UniProt P53341); experiment: α-glucosidase inhibition assay (pNPG, absorbance at 405 nm); assay type: biochemical; settings: 0.1 mg/mL and 0.5 mg/mL, Figure 1
# T1 sequence (P53341 whole entry): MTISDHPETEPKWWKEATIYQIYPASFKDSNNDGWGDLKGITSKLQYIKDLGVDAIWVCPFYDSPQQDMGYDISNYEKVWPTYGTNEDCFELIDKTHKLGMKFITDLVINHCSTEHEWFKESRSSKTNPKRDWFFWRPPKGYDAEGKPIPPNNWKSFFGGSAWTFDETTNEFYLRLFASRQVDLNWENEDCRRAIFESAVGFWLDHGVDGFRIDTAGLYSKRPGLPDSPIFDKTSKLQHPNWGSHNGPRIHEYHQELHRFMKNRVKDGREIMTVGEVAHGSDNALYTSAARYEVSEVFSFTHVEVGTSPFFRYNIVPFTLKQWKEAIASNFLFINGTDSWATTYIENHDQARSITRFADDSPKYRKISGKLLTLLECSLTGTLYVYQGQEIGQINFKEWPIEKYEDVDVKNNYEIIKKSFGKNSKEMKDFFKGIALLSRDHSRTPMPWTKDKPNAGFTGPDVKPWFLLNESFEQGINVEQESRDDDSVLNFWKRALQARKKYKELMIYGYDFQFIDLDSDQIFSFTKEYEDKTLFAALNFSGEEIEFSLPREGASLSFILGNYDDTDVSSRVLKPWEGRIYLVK
# Procedure: Different concentrations (0.01, 0.1, 1, 5, and 10 mg/mL) of Pop extract samples, PBS (pH = 6.8), and α-glucosidase (5 U/mL) were mixed together with equal volumes and co-incubated at 37°C for 15 min. 20 μL pNPG (3 mM) was added to incubate for another 10 min and 150 μL Na2CO3 (0.1 mol/L) was used to stop the reaction. […] Meanwhile, the blank group without samples were simultaneously carried out and the inhibition ratios were calculated ([21], [22]).
# For identified compounds, two concentrations (0.1 mg/mL and 0.5 mg/mL) of each inhibitor were prepared and added to PBS (pH = 6.8) and α-glucosidase (5 U/mL) with equal volumes. After that, 20 μL pNPG (3 mM) was added to initiate the reactions and the changes of absorbance were recorded every 20 s immediately.
# α-glucosidase [2] = biological target: T1, α-glucosidase; experiment: Circular dichroism spectra, secondary structure contents of α-glucosidase; settings: EA 2 mg/mL, α-glucosidase 5.0 U/mL
# Procedure: The analysis of CD spectrum was performed according to the previous report with some modifications ([26]). Briefly, both α-glucosidase and EA were dissolved in PBS (pH = 6.8). […] The spectrum scanning range was 200–250 nm, the response time and scanning speed were 1 s and […], respectively.
# α-glucosidase [3] = biological target: T1, α-glucosidase; design: method as in PMID 20232167; settings: EA isolated and identified from Rosa gallica; cited from earlier work
# α-glucosidase [4] = biological target: T1, α-glucosidase; experiment: Atomic force microscopy of α-glucosidase with EA; settings: EA 40 μg/mL, α-glucosidase 2.0 U/mL, co-incubation 30 min
# α-glucosidase [5] = biological target: T1, α-glucosidase; experiment: Kinetic analysis: Lineweaver–Burk plot and inhibitory reversibility; assay type: biochemical
# Procedure: Lineweaver–Burk plot was employed to determine the inhibitory type of EA against α-glucosidase ([23]). Briefly, 20 μL α-glucosidase (5 U/mL) was mixed with different concentrations (0, 10, 15, 20, 30 μg/mL) of EA and incubated at 37°C for 15 min. pNPG (1.0, 2.0, 4.0, and 8.0 × 10^–3 mol/L) was added to initiate the reaction and the changes of absorbance were recorded every 60 s immediately. The double-reciprocal plots of reaction velocity (υ) against different concentration of pNPG (1/υ vs. 1/[pNPG]) were analyzed using the Lineweaver–Burk plot to determine inhibition constant (Ki).
# To determine the inhibitory reversibility of EA against α-glucosidase, different concentrations (0, 20, 40, 60, and 100 μg/mL) of EA were reacted with the range of 7.5–1 U/mL α-glucosidase, the absorbance was recorded every 60 s immediately after the pNPG (3 mM) was added ([24]).
# α-glucosidase [6] = biological target: T1, α-glucosidase; experiment: Fluorescence quenching of α-glucosidase by EA (Stern–Volmer, binding and thermodynamic analysis)
# Procedure: The fluorescence spectra of α-glucosidase with or without EA were measured at three different temperatures (298, 304, and 310 K) according to the previous study ([21]). Exactly, 2.5 mL α-glucosidase (15 U/mL) was titrated by continuous additions of EA (5 μL each time) to reach a final concentration range from 0 to 19.89 × 10^–6 mol/L. After 5 min of equilibration under different temperatures, the steady fluorescence emission spectra were recorded from 300 to 460 nm with an excitation wavelength of 280 nm. Additionally, the fluorescence of free EA was measured as the background. According to fluorescence spectra data, the quenching constant (Ksv), binding constant (Ka), number of binding sites (n), the binding constant of accessible fluorophores, and the values of free energy change (△G^0), △H^0 and △S^0 were calculated according the previous reports ([21], [22], [25]).
# To further exploit the quenching mechanism, Ksv was calculated by Stern–Volmer equation to determine the quench type, dynamic quenching or static quenching:
# (1) F0/F=1+KSV[Q]=1+Kqτ0[Q]
# where F0 and F are the peak of fluorescence intensities of α-glucosidase […], respectively; Ksv is the dynamic quenching constant; Kq is the quenching rate constant; [Q] is the different concentrations of EA; τ0 is the average lifetime of fluorescence with the value of 10^–8 s.
# For static quenching, the equation as follow was employed to calculate binding constant (Ka) and number of binding sites (n) between EA and α-glucosidase:
# (2) lgF0-F/F=lgKa+nlg[Q]
# Thermodynamic analysis was performed to further determine the binding forces between EA and α-glucosidase, and the relevant thermodynamic parameters, including△G^0,△H^0, and △S^0, were calculated by the two following equations: […]
compound,measurement,setting,value
"C[C@H]1O[C@H](O[C@H]2[C@H](O)[C@@H](O)[C@@H](O[C@H]3[C@H](O)[C@@H](O)C(O)O[C@@H]3CO)O[C@@H]2CO)[C@H](O)[C@@H](O)[C@@H]1N[C@H]1C=C(CO)[C@@H](O)[C@H](O)[C@H]1O (some centres unmarked) [acarbose, Acarbose, reference compound]",reduction of AUC of blood glucose,Kunming mice; sucrose 2 g/kg + acarbose 50 mg/kg,36.4%
"O=C(O)c1cc(O)c(O)c(O)c1 [gallic acid, Gallic acid]",α-glucosidase inhibitory activity of identified compounds (in words),α-glucosidase [1],strong activity
"O=c1c(O)c(-c2ccc(O)cc2)oc2cc(O)cc(O)c12 [kaempferol, Kaempferol]",α-glucosidase inhibitory activity of identified compounds (in words),α-glucosidase [1],strong activity
"O=c1oc2c(O)c(O)cc3c(=O)oc4c(O)c(O)cc1c4c23 [EA, Ellagic acid]",Random coil content of α-glucosidase,α-glucosidase [2]; VEA:Vα–glucosidase 25:200,28.43 ± 0.21%
same,α–helix content of α-glucosidase,α-glucosidase [2]; VEA:Vα–glucosidase 25:200,29.53 ± 0.29%
same,β–sheet content of α-glucosidase,α-glucosidase [2]; VEA:Vα–glucosidase 25:200,23.73 ± 0.21%
same,β–turn content of α-glucosidase,α-glucosidase [2]; VEA:Vα–glucosidase 25:200,18.07 ± 0.21%
same,Random coil content of α-glucosidase,α-glucosidase [2]; VEA:Vα–glucosidase 50:200,30.47 ± 0.33%
same,α–helix content of α-glucosidase,α-glucosidase [2]; VEA:Vα–glucosidase 50:200,28.17 ± 0.21%
same,β–sheet content of α-glucosidase,α-glucosidase [2]; VEA:Vα–glucosidase 50:200,26.60 ± 0.22%
same,β–turn content of α-glucosidase,α-glucosidase [2]; VEA:Vα–glucosidase 50:200,18.57 ± 0.29%
same,Random coil content of α-glucosidase,α-glucosidase [2]; VEA:Vα–glucosidase 100:200,32.87 ± 0.33%
same,α–helix content of α-glucosidase,α-glucosidase [2]; VEA:Vα–glucosidase 100:200,24.83 ± 0.29%
same,β–sheet content of α-glucosidase,α-glucosidase [2]; VEA:Vα–glucosidase 100:200,31.00 ± 0.54%
same,β–turn content of α-glucosidase,α-glucosidase [2]; VEA:Vα–glucosidase 100:200,18.70 ± 0.33%
same,α-glucosidase inhibition (in words),α-glucosidase [3],almost no α-glucosidase inhibition
same,α-glucosidase inhibitory activity of identified compounds (in words),α-glucosidase [1],strongest activity
same,effect on α-glucosidase molecules observed by AFM (in words),α-glucosidase [4],aggregated together and formed irregular polymers
same,inhibitory type,"α-glucosidase [5]; Lineweaver–Burk plot, lines intersect on Y axis",competitive
same,inhibitory reversibility,"α-glucosidase [5]; υ vs. [α-glucosidase], EA 0-100 μg/mL",reversible
same,fluorescence quenching mechanism,α-glucosidase [6],static quenching mechanism
same,Ksv (quenching constant),α-glucosidase [6]; 298 K,4.75 ± 0.01 ×10^5 L/mol
same,n (number of binding sites),α-glucosidase [6]; 298 K,0.87
same,ΔG^0,α-glucosidase [6]; 298 K,-23.15 ± 0.03 kJ/mol
same,Ksv (quenching constant),α-glucosidase [6]; 304 K,4.05 ± 0.03 ×10^5 L/mol
same,n (number of binding sites),α-glucosidase [6]; 304 K,0.83
same,ΔG^0,α-glucosidase [6]; 304 K,-22.30 ± 0.06 kJ/mol
same,Ksv (quenching constant),α-glucosidase [6]; 310 K,3.32 ± 0.01 ×10^5 L/mol
same,n (number of binding sites),α-glucosidase [6]; 310 K,0.86
same,ΔG^0,α-glucosidase [6]; 310 K,-21.12 ± 0.05 kJ/mol
same,Kq (quenching rate constant),"α-glucosidase [6]; at each temperature (298, 304, 310 K)",> 2.0 × 10^10 L/mol⋅s
same,ΔH^0,"α-glucosidase [6]; from 298, 304 and 310 K",-73.55 ± 0.36 kJ/mol
same,ΔS^0,"α-glucosidase [6]; from 298, 304 and 310 K",−169.14 ± 0.33 J/mol⋅K
same,reduction of AUC of blood glucose,Kunming mice; sucrose 2 g/kg + EA 25 mg/kg,31.8%
"Oc1ccc(/C=C/c2cc(O)cc(O)c2)cc1 [resveratrol, Resveratrol]",α-glucosidase inhibitory activity of identified compounds (in words),α-glucosidase [1],strong inhibitory activity

# Source: paper PMC9623087, “Bioaffinity ultrafiltration coupled with HPLC-ESI-MS/MS for screening potential α-glucosidase inhibitors from pomegranate peel” (Frontiers in Nutrition, 2022)
